The source of these data is ChEMBL document CHEMBL1125844, “Novel non-nucleoside inhibitors of HIV-1 reverse transcriptase. 1. Tricyclic pyridobenzo- and dipyridodiazepinones” (J Med Chem, 1991).

Bounds are passed on as bounds.

Test [1] concerns the target Human immunodeficiency virus type 1 reverse transcriptase (Human immunodeficiency virus 1) (UniProt Q72547). The test can be described thus: In vitro inhibitory activity of compound against human immunodeficiency virus type 1 (HIV-1) Reverse transcriptase at a concentration of 10 ug/mL.
For test [2], the target named is T1, Human immunodeficiency virus type 1 reverse transcriptase (Human immunodeficiency virus 1, UniProt Q72547). The test can be described thus: In vitro inhibitory activity of compound against human immunodeficiency virus type 1 (HIV-1) Reverse transcriptase.
The target of test [3] is Human immunodeficiency virus type 1 reverse transcriptase (Human immunodeficiency virus 1) (UniProt Q72547). Nature of the test: In vitro inhibitory activity of compound against human immunodeficiency virus type 1 (HIV-1) rReverse transcriptase at a concentration of 10 ug/mL.
Test [4] concerns the target T1, Human immunodeficiency virus type 1 reverse transcriptase. The test can be described thus: In vitro inhibitory activity against human immunodeficiency virus type 1 (HIV-1) reverse transcriptase (RT).
The test system of test [5] is T-cell line. The test can be described thus: In vitro cytotoxicity in CD4+ human T-cells (c8166), […]. Type of test: functional.
For test [6], the target named is Human immunodeficiency virus type 1 reverse transcriptase (Human immunodeficiency virus 1) (UniProt Q72547). The test can be described thus: In vitro inhibitory activity against human immunodeficiency virus type 1 (HIV-1) reverse transcriptase (RT) at a concentration of 10 ug/mL.

A word on the inhibition: it is how much of the control response was suppressed. By IC50 is commonly meant the midpoint of a concentration-inhibition curve. A word on the CC50: it is the concentration at which the toxic effect on the cells reaches its halfway point. Read a low CC50 as harm at low concentration.

As for `CCN1c2ncccc2C(=O)N(C)c2ccc(Cl)nc21`, in test [1], the inhibition was 100%. The IC50 in test [2] was found to be 150 nM.
In turn, `CCN1C(=O)c2ccccc2N(C)c2nc(Cl)ccc21` yielded an inhibition in test [3] of 76%. In test [2], this compound displayed an IC50 of 3300 nM.
In test [4], `Cc1cn([C@H]2C[C@H](N=[N+]=[N-])[C@@H](CO)O2)c(=O)[nH]c1=O` [ZIDOVUDINE] showed an IC50 of 6 nM. In test [5], this compound showed a CC50 of 66 µM.
The compound `CCN1c2ccc(C)cc2C(=O)N(C)c2cccnc21` yielded an IC50 in test [4] of 580 nM. This compound registered an inhibition in test [6] of 99%.
In turn, `O=C1c2cccnc2Nc2ccccc2N1CCO` returned a half-inhibitory concentration (IC50) in test [4] of more than 1000 nM. The inhibition in test [6] came out at 46%.
As for `CCN1c2ncccc2NC(=O)c2cccnc21`, in test [4], the midpoint of inhibition, the IC50, lay at 440 nM. In addition, the inhibition in test [6] was 99%.
Take `CCCN1c2ncccc2C(=O)N(C)c2cccnc21`: in test [4], the midpoint of inhibition, the IC50, lay at 450 nM. Further, the inhibition in test [6] is 100%.
On to `CCN1c2ncccc2C(=O)N(C)c2c(C)ccnc21`, for which the IC50 in test [4] came to 1900 nM. Moreover, in test [6], the inhibition stood at 98%.
Consider `CCN1c2ncccc2C(=O)N(C)c2cc(Cl)c([N+](=O)[O-])nc21`, for which the inhibition in test [1] worked out at 98%. In addition, the IC50 in test [2] is more than 1000 nM.
In the case of `CCN1c2ccc([N+](=O)[O-])cc2N(C)C(=O)c2cccnc21`, in test [4], the IC50 was more than 1000 nM. In addition, the inhibition in test [6] came out at 56%.
`CCN1c2ncccc2NC(=O)c2c(C)ccnc21` gave an IC50 in test [4] of more than 1000 nM. This compound also registered an inhibition in test [6] of 80%.
In the case of `CCN1C(=O)c2cccnc2Nc2ccccc21`, the IC50 in test [4] is more than 1000 nM. In test [6], this compound gave an inhibition of 87%.
The like results for `CCN1c2ccc(CNC(=O)C(C)(C)C)cc2N(C)C(=O)c2cccnc21` were, in that order, more than 1000 nM and 15%.
With `CN1C(=O)c2cccnc2N(CCO)c2ccccc21`, in test [4], the IC50 was more than 1000 nM. The compound further showed an inhibition in test [6] of 58%.
For the compound `CN(C)CCN1C(=O)c2cccnc2N(C2CC2)c2ncccc21`, the IC50 in test [4] is more than 1000 nM. In addition, in test [6], the inhibition stood at 34%.
On to `CC(C)(C)OC(=O)CN1C(=O)c2cccnc2Nc2ccccc21`, for which, in test [4], the IC50 was more than 1000 nM. The compound also returned an inhibition in test [6] of 39%.
Consider `CCN1c2ncccc2NC(=O)c2cc(C)cnc21`, for which the IC50 in test [4] was more than 1000 nM. In test [6], this compound registered an inhibition of 89%.
The like results for `O=C1Nc2ccccc2Nc2ncccc21` were, in that order, more than 1000 nM and 22%.
In turn, `CCN1c2nc(C)c(C)cc2NC(=O)c2cccnc21` returned an IC50 in test [4] of 410 nM. The inhibition in test [6] came to 100%.
On the same counts, the results for `CCN1c2ncccc2C(=O)N(C)c2ccc(C)nc21` are 170 nM and 100%.
As for `CCN1c2ccccc2NC(=O)c2cccnc21`, the IC50 in test [4] worked out at 380 nM. The inhibition in test [6] was determined as 99%.
Take `Cc1ccc2c(c1)N(C)C(=O)c1c(C)cc(C)nc1N2C`: the IC50 in test [4] was more than 1000 nM. The inhibition in test [6] was determined as 49%.
On the same counts, the results for `CCN1c2cc(Cl)ccc2N(C)C(=O)c2cccnc21` are 170 nM and 100%.
Consider `CCN1c2ncccc2C(=O)N(C)c2cc(Cl)c(N)nc21`, for which, in test [4], the IC50 is 850 nM. Also, the inhibition in test [6] is 98%.
Compound `O=C1Nc2cccnc2N(C2CCC2)c2ncccc21` gave an IC50 in test [4] of 430 nM. Also, the inhibition in test [6] amounted to 99%.
The like results for `CN1c2ccccc2NC(=O)c2cccnc21` were, in that order, more than 1000 nM and 75%.
Compound `CCN1c2cc(C)c(C)cc2N(C)C(=O)c2cccnc21` yielded an IC50 in test [4] of 40 nM. For the same compound, in test [6], the inhibition worked out at 100%.
`N#Cc1ccnc2c1NC(=O)c1cccnc1N2C1CC1` gave an IC50 in test [4] of 1250 nM. Further, in test [6], the inhibition was 96%.
`CN1C(=O)c2cccnc2N(CC(=O)OC(C)(C)C)c2ccccc21` yielded an IC50 in test [4] of more than 1000 nM. In addition, the inhibition in test [6] worked out at 87%.
The like results for `CC[C@H](C)N1c2ncccc2NC(=O)c2cccnc21` were, in that order, more than 1000 nM and 88%.
Turning to `CCN1c2ncccc2C(=O)Nc2c(C)ccnc21`, half-maximal inhibition in test [4] (IC50) required 35 nM. Moreover, in test [6], the inhibition was 100%.
Turning to `Cc1cc(C)c2c(n1)Nc1ccccc1C(=O)N2`, the IC50 in test [4] is more than 1000 nM. This compound also registered an inhibition in test [6] of 51%.
On the same counts, the results for `CCN1c2ncccc2C(=O)N(C)c2cccnc21` are 125 nM and 100%.
With `CCN1c2cc(N=[N+]=[N-])ccc2N(C)C(=O)c2cccnc21`, the midpoint of inhibition in test [4], the IC50, lay at 140 nM. The compound also displayed an inhibition in test [6] of 100%.
On the same counts, the results for `CCN1c2ccc(CN)cc2N(C)C(=O)c2cccnc21` are more than 1000 nM and 84%.
Turning to `CC(=O)N1c2ncccc2C(=O)N(C)c2cccnc21`, the IC50 in test [4] came out at 15300 nM. In test [6], this compound came in with an inhibition of 73%.
The like results for `CCN1c2ncccc2C(=O)N(C(C)=O)c2cccnc21` were, in that order, 360 nM and 99%.
Regarding `Cc1cc2c(cc1C)N(CCN(C)C)c1ncccc1C(=O)N2C`, the IC50 in test [4] is more than 1000 nM. Further, in test [6], the inhibition amounted to 0%.
With `CN1C(=O)c2ccccc2N(C)c2ncccc21`, the IC50 in test [4] is more than 1000 nM. Also, the inhibition in test [6] was found to be 74%.
Consider `CCN1c2ccccc2N(C)C(=O)c2ccc(F)nc21`, for which the IC50 in test [4] was 2900 nM. Also, the inhibition in test [6] is 84%.
`CCN1c2ccccc2N(C)C(=O)c2cc(Cl)cnc21`: in test [4], the IC50 is 7600 nM. Moreover, in test [6], the inhibition is 91%.
In turn, `CN1C(=O)c2cccnc2N(CC(=O)O)c2ccccc21` came in with an IC50 in test [4] of more than 1000 nM. Further, the inhibition in test [6] worked out at 60%.
In test [4], `CCN1c2cc(N)ccc2N(C)C(=O)c2cccnc21` had an IC50 of 4500 nM. This compound showed an inhibition in test [6] of 89%.
Compound `CN1C(=O)c2cccnc2N(Cc2ccccc2)c2ccccc21` returned an IC50 in test [4] of 9000 nM. The inhibition in test [6] came out at 93%.
Regarding `CCOC(=O)N1c2ccccc2N(C)C(=O)c2cccnc21`, the half-maximal inhibitory concentration (IC50) in test [4] is more than 1000 nM. Besides, the inhibition in test [6] came out at 13%.
In test [4], `CCN1c2cc([N+](=O)[O-])ccc2N(C)C(=O)c2cc(Br)cnc21` had an IC50 of 890 nM. Moreover, the inhibition in test [6] turned out to be 95%.
In test [4], `CSCN1c2ccccc2N(C)C(=O)c2cccnc21` had an IC50 of 6600 nM. Besides, the inhibition in test [6] stood at 84%.
